Experimental data as given in patent publication USRE38352E1, “Polymerase chain reaction assays for monitoring antiviral therapy and making therapeutic decisions in the treatment of acquired immunodeficiency syndrome” (priority 1992, dated 2003).
Several values for one entry are separate records, joined by “and”; a condition that tells them apart may be missing. Equal values may be shown once.

What was measured:
plasma HIV RNA = test: Plasma HIV RNA copy number by cDNA gene amplification (PCR) and enzyme-linked affinity assay; format: in vivo, human (HIV antibody-positive subjects); conditions: individual patient
Excerpt: After informed consent was obtained, whole blood samples were collected by venipuncture in the presence of acid-citrate-dextrose as an anticoagulant. A single plasma sample was collected from 39 HIV antibody-positive subjects who were not receiving antiretroviral therapy at the time of collection and from 33 HIV antibody-positive subjects who were currently on and had received AZT for a minimum of 3 mo.
(§1) Two plasma samples were collected from an additional 27 subjects before and 1 month after initiation of dideoxynucleoside therapy. 18 of these subjects received 500 mg/d of AZT orally. Seven subjects received a combination of zidovudine (150-600 mg/d) and 2′,3′-dideoxyinosine (ddI) (134-500 mg/d). Two patients received 500 mg/d of ddI alone (see Table I for individual subject characteristics). Finally, nine of these subjects had two plasma samples taken 1-3 wk. before initiating antiretroviral therapy and two plasma samples taken 1 and 2 mo. after commencing therapy. Plasma was separated within 4 h. by centrifugation at 500 g for 10 min. A second centrifugation was performed on the plasma at 500 g for 30 min. to remove any cellular material. 200 μl of plasma was then mixed with 200 μl of a solution containing 5M guanidinium thiocyanate, vortexed briefly, and stored at −70° C. until further use. All samples were assayed within 3 mo. of collection. To decrease variance, all specimens to be compared from the same subject were run in the same assay.
RNA was extracted from plasma by the method described in Chomczynski et al., 1987, Ann. Biochem. 162:156-159. Briefly, 200 μl of clarified plasma to which 200 μl of 5M guanidinium thiocyanate had previously been added was extracted with phenol/chloroform and precipitated with isopropanol. The resulting pellet was then washed in 75% ethanol, dried, and brought up in diethylpyrocarbonate treated, glass distilled water.
HIV RNA was transcribed to cDNA using Moloney murine leukemia virus reverse transcriptase (Bethesda Research Laboratories, Gaithersburg, Md.) by the method described in Kawasaki, 1990, “In PCR Protocols: A Guide to Methods and Applications” pp. 21-27, M. A. Innis, D. H. Gelfand, J. J. Sninsky, and T. J. White, eds. Academic Press, Berkeley, Calif. Oligomers used for amplification included SK38, SK39, and SK19 (Kellog et al., 1990, “In PCR Protocols: A Guide to Methods and Applications,” pp. 337-348, M. A. Innis, D. H. Gelfand, J. J. Sninsky, and T. J. White, eds. Academic Press, Berkeley, Calif.). Biotinylation of SK38 and horseradish peroxidase (HRP) labeling of probe SK19 were prepared as described in Levenson et al., 1990, “In PCR Protocols: A Guide to Methods and Applications,” pp. 99-112M. S. Innis, D. H. Gelfand, J. J. Sninsky, and T. J. White, eds. Academic Press, Berkeley, Calif. Amplification of HIV cDNA was carried out as follows: to a 100-μl reaction mixture was added the cDNA, 50 pmol of primers SK38 and SDK39, […] of each dNTP, 10 mM Tris (pH 8.3), 2.5 mM MgCl2, 50 mM KCl, and 2.5 U of recombiTaq DNA polymerase (Perkin-Elmer Cetus, Norwalk, Conn.). The mixture was then overlaid with 50 μl of mineral oil. Tubes were placed in a DNA thermal cycler (Perkin-Elmer Cetus) for 30 cycles of amplification with the following program: 95° C./30 s, 55° C./30s, and 72° C./60 s for denaturation, annealing, and extension, respectively. Negative and positive controls which included both high and low copy number HIV RNA and DNA were added at each step.
To detect and quantitate PCR product, 96-well microplates (Maxisorp; Nunc, Naperville, Ill.) were coated with 100 μl of a 0.1 mg/ml solution of avidin (Sigma Chemical Co., St. Louis, Mo.) in 50 mM Na2CO3 (pH 9.6) overnight at room temperature. Wells were then washed twice with PBS. Wells were then filled with 300 μl of a blocking solution containing 5X Denhardt's solution, 1% gelatin (Sigma), […] sheared herring sperm DNA (Promega Biotec, Madison, Wis.) at least overnight at 4° C. […]

CD4 cells = test system: CD4 cells; design: species or system human (HIV antibody-positive subjects); conditions: human, in vivo
Method: as §1
Sample optical density was converted to copy number and analyses performed on samples expressed as RNA copy number/200 μl of plasma. […] A t test of paired samples was used to analyze paired plasma data and CD4 counts from subjects pre- and post-therapy. All t tests were two tailed. […]

serum HIV RNA = test: Serum virus burden by quantitative PCR in patients receiving didanosine monotherapy; format: in vivo, human (patients infected with HIV)
Excerpt: Duplicate serum samples were ultracentrifuged, and the pellet was purified by phenol-chloroform extraction and alcohol precipitation, as previously described for plasma (Winters et al., 1993, J. Clin. Microbiol. 31:2960-2966). Polymerase chain reaction quantification of viral RNA was done using reverse-transcriptase PCR, and the PCR product was detected using a nonisotopic enzyme-hybridization assay, as previously described (Winters et al., 1992, PCR Methods Appl. 1:257-262). Results were then expressed as HIV RNA copies per milliliter of serum.
(§2) A two-sided t-test was used to compare changes in virus burden between patient groups. A standard one-sample, two-sided Wilcoxon test was used to compare differences in the change of slopes of CD4^+ T cells (slopes of CD4^+ cells before the mutation compared with slopes of CD4^+ cells after the mutation) for patients developing a mutation at codon 74. The slope difference test analysis pertained to the slope difference statistic, defined to be the difference in fitted slope of the CD4^+ counts after compared with before the mutation at codon 74. Thirty-four of 38 patients in the mutation group had sufficient data to allow computation of the slope difference statistic.

CD4+ T cells = test: CD4+ T-cell slope changes before/after codon 74 mutation on didanosine; format: in vivo, human (patients infected with HIV); conditions: 34 of 38 patients who developed the mutation; CI −2.68 to −0.71
Excerpt: as §2
We compared the slope difference statistic values for the 34 mutants with the corresponding values from the wild-type group in order to see if they were more negative in the mutant group. […]

[1] = test system: HIV with codon 74 mutation in reverse transcriptase; conditions: codon 74 mutation in an HIV construct (St. Clair et al.); cited from earlier work

## OC[C@@H]1CC[C@H](n2cnc3c(O)ncnc32)O1 [ddI, 2′,3′-dideoxyinosine]
Plasma HIV RNA; 1 mo after initiation, ddI 500 mg/d
  Post HIV RNA: 0 copy number/200 μl of plasma
Plasma HIV RNA; before initiation of therapy
  Pre HIV RNA: 966 copy number/200 μl of plasma and 3944 copy number/200 μl of plasma
CD4 cells
  Post CD4: 328/310 and 222/370
  Pre CD4: 328/310 and 222/370
Serum HIV RNA; Week 0, listed as DIDANOSINE
  Fold Difference in virus burden, mutant vs wild type: 1.66 fold
Serum HIV RNA; Week 0, listed as didanosine
  Fold Difference in virus burden, mutant vs wild type: 1.6 fold
Serum HIV RNA; Week 24, listed as DIDANOSINE
  Fold Difference in virus burden, mutant vs wild type: 2.71 fold
Serum HIV RNA; Week 24, listed as didanosine
  Fold Difference in virus burden, mutant vs wild type: 2.7 fold
Serum HIV RNA; patients whose codon 74 genotypes became mutant, initiation of didanosine
  Week 0, mean HIV RNA copies/mL serum: 83 000 copies/mL serum
Serum HIV RNA; patients whose codon 74 genotypes remained wild type, initiation of didanosine, listed as DIDANOSINE
  Week 0, mean HIV RNA copies/mL serum: 50100 copies/mL serum
Serum HIV RNA; patients whose codon 74 genotypes remained wild type, initiation of didanosine, listed as didanosine
  Week 0, mean HIV RNA copies/mL serum: 50 100 copies/mL serum
Serum HIV RNA; remained wild type at codon 74
  Fold increase in virus burden between week 0 to 24: 1.65 fold
  Week 24, mean HIV RNA copies/mL serum: 82400 copies/mL serum
Serum HIV RNA; subgroup codon 74 mutation with codon 215 mutation, after 24 weeks of didanosine
  mean serum virus burden: about 275 400 HIV RNA copies/mL serum
Serum HIV RNA; {}
  Week 0, mean HIV RNA copies/mL serum: 83000 copies/mL serum
  Week 24, mean HIV RNA copies/mL serum: 225000 copies/mL serum
CD4+ T cells
  median greater decline of CD4+ T-cell slope after vs before codon 74 mutation: −1.54 CD4^+ cells/wk
[1]
  decrease in susceptibility to didanosine: eightfold
